According to patent US6337317B1, “Antimicrobial peptides and methods of use thereof” (priority 2000, dated 2002):
Where a SMILES comes first, the peptide text is derived from it.

Columns and labels:
[1] = tested on: E. coli DC2; type: cell-based, Escherichia coli; conditions: E. coli DC2 (outer membrane deficient mutant)
Description: (§1) The biological activity of the peptides can be determined by standard methods known to those of skill in the art, such as a “minimal inhibitory concentration” (MIC) assay (see Wu and Hancock (1999) J. Biol Chem. 274:29-35 and Examples section). A MIC assay allows the determination of the lowest concentration of peptide that inhibits the multiplication and growth of mircoorganisms. Changes in the microorganism population are assessed by measuring the optical density (OD) of the population in broth or medium. Peptide MIC's can be determined for a variety of micoorganisms under a variety of conditions. Another assay for the biological activity of the peptides is a “fractional inhibitory concentration” (FIC) assay. This assay is especially useful for determining synergistic effects between the peptides of the invention, and between invention peptides and other compounds such as known antibiotics. A FIC assay employs the strategy of a MIC assay with additional variable(s), e.g., known antibiotics. […] The FIC is calculated by looking at the impact of an antibiotic on the MIC of the peptide and the reciprocal relationship. […] As used herein, FIC can be determined as follows: […]
(§2) MIC Assay p The minimum inhibitory concentrations of (MIC) of several invention peptides were determined using methods described elsewhere (Wu and Hancock, (1999) J. Biol Chem. 274:29-35). […]

[2] = tested on: E. coli KF130; type: cell-based, Escherichia coli
Description: as §1, §2

[3] = tested on: P. aeruginosa H374; type: cell-based, Pseudomonas aeruginosa
Description: as §1, §2

[4] = tested on: P. aeruginosa H744; type: cell-based, Pseudomonas aeruginosa
Description: as §1, §2

[5] = tested on: S. aureus R147; type: cell-based, Staphylococcus aureus
Description: as §1, §2

[6] = tested on: S. aureus SAP0017; type: cell-based, Staphylococcus aureus
Description: as §1, §2

[7] = tested on: E. coli 0111:B4 LPS induced production of TNF-α in RAW macrophages; assay: Reduction of LPS-induced TNF-α in RAW 264.7 macrophages (ELISA); type: cell-based, murine; conditions: peptide 20 μg/ml; LPS 100 ng/ml; RAW 264.7; 6 hours
Description: The ability of invention peptides to reduce LPS-induced tumor necrosis factor (TNF) production was tested in an in vitro assay. The murine macrophage cell line RAW 264.7 was obtained from American Type Culture Collection (Manassas, Va.) and grown in DMEM medium supplemented with 10% fetal calf serum. The cells were plated at a density of 10^6 cells/well in 24 well plates, incubated overnight, then washed with fresh medium. E. coli 0111 :B4 (100 ng/ml) was added at time 0 to RAW macrophages. Invention peptides […]/m were added at time 0, 30 and 60 minutes and the cells were stimulated for 6 hours. Levels of TNF and interleukin-6 (IL-6) were measured after 6 hours.

[8] = tested on: E. coli DC2; assay: Cytoplasmic membrane depolarization, diSC35 assay; type: cell-based, Escherichia coli; conditions: 0.25 μg/ml peptide
Description: The arrowhead indicates the time at which 0.25 μg/ml peptide was added. PV5: SEQ ID NO:11; PV7: SEQ ID NO:4; and PV8: SEQ ID NO:3.
The cytoplasmic membrane depolarization activity of the peptides was determined (Wu and Hancock (1999) J. Biol. Chem. 274:29-35) using the membrane potential sensitive dye 3,3-dipropylthiacarbocyanine diSC35 (28) and E. coli DC2. Bacterial cells in mid-log phase were centrifuged, washed in 5 mM HEPES, pH 7.8, and resuspended in the same buffer to an OD600 of 0.05. A stock solution of diSC35 was added to a final concentration of 0.4 μM and quenching was allowed to occur at room temperature for 20-30 min. Then KCl was added to the cell suspension to a final concentration of 100 mM to equilibrate the cytoplasmic and external K^+ concentrations. A 2-mL cell suspension was placed in a 1 cm cuvette and the desired concentration of tested peptide was added. Changes in fluorescence due to the disruption of the membrane potential in the cytoplasmic membrane were continuously recorded using a Perkin-Elmer model 650-10S spectrofluorimeter at an excitation wavelength of 622 nm and an emission wavelength of 670 nm. The concentration of peptide leading to a 50% of maximal increase in NPN uptake was recorded as the P50.

`CC(C)[C@@H]1NC(=O)[C@H](CCCNC(=N)N)NC(=O)[C@H](Cc2ccccc2)NC(=O)[C@@H](NC(=O)[C@H](Cc2c[nH]c3ccccc23)NC(=O)[C@H](CCCNC(=N)N)NC(=O)[C@@H](N)CCCNC(=N)N)CSSC[C@@H](C(=O)N[C@@H](CCCNC(=N)N)C(N)=O)NC(=O)[C@H](CCCCN)NC(=O)[C@H](CCCNC(=N)N)NC(=O)[C@H](Cc2ccc(O)cc2)NC(=O)[C@@H]2CSSC[C@H](NC1=O)C(=O)N[C@@H](Cc1ccc(O)cc1)C(=O)N[C@@H](CCCNC(=N)N)C(=O)NCC(=O)N[C@@H](Cc1ccccc1)C(=O)N2` [Polyphemusin I] (HELM PEPTIDE1{R.R.W.C.F.R.V.C.Y.R.G.F.C.Y.R.K.C.R.[am]}$PEPTIDE1,PEPTIDE1,4:R3-17:R3|PEPTIDE1,PEPTIDE1,8:R3-13:R3$$$V2.0; N-terminus and C-terminus assumed) showed an MIC [1] of 0.125 µg/mL, an MIC [2] of 0.125 µg/mL and an MIC [3] of 0.25 µg/mL. For the same compound, the MIC [4] was 0.25 µg/mL, the MIC [5] was 0.5 µg/mL and the MIC [6] was 0.5 µg/mL. The “Inhibition of TNF-α (%)” value [7] was 83 ± 6% and the “time to dissipation of the cytoplasmic membrane potential” value [8] was at most 5 min.
